Experiment: Iodide concentration in plasma of treated human volunteers by ion chromatography with amperometric detection
Type: in vivo
Details: plasma samples from human volunteers treated with various dosages of sodium iodide, protein precipitation with acetonitrile
Method: Plasma samples were obtained from Bioreclamation IVT in 10 mL aliquots of frozen plasma in lithium heparin. The plasma samples were normal plasma samples obtained from healthy male and female volunteers who were not treated with iodide. The plasma samples were prepared according to the following protocol. • 0.5 mL plasma was diluted 3:1 with pure acetonitrile for protein precipitation before analysis by Amperometric detection. (ex: 0.5 mL […] plus 1.5 mL pure Acetonitrile) • Samples were mixed gently and then centrifuged at max speed (14,000 rpm or 20,817 rcf) for 2 minutes. • Supernatant was carefully removed as to not disturb protein pellet, and transferred to a clean Eppendorf tube. • Supernatants were again centrifuged at max speed for 2 minutes. • Samples were spiked as necessary with NaI to fall between 2.5 and 200 ppb NaI concentrations. • 270 μL or 1 mL volumes of samples were analyzed by Amperometric detection on IC against a standard curve in a diluent matrix.
Plasma samples were obtained from human volunteers treated with various dosages of sodium iodide. The plasma samples were processed and sodium iodide concentrations determined essentially as described in Example 3.

SMILES: [I-].[Na+] [sodium iodide]
- determined serum concentrations of sodium iodide: positively correlated with dosages administered
